As a reminder, the EC50 is the concentration giving half of the maximal effect. One may read the IC50 as the midpoint of a concentration-inhibition curve.

Some results are limits rather than exact numbers.

The test system of series [1] is Trypanosoma brucei. Description: Antitrypanosomal activity against bloodstream form of Trypanosoma brucei assessed as parasite growth inhibition incubated for 3 days by resazurin staining based assay. It is filed as functional, organism-based. To be noted: 72 h.
The nature of series [2]: Inhibition of Trypanosoma Trypanothione reductase in presence of NADPH by DTNB based colorimetric assay.
The test system of series [3] is Trypanosoma brucei rhodesiense. Description: Antitrypanosomal activity against Trypanosoma brucei rhodesiense STIB900 assessed as parasite growth inhibition. It counts as functional, organism-based.
The nature of series [4]: Selectivity index, ratio of IC50 for cytotoxicity against African green monkey Vero cells to IC50 for antitrypanosomal activity against Trypanosoma brucei rhodesiense STI B900. It counts as toxicity, cell-based. To be noted: read-out: Ratio IC50.
For series [5], the system named is Trypanosoma brucei rhodesiense. The experiment in a line: Antitrypanosomal activity against Trypanosoma brucei rhodesiense STIB900 assessed as parasite growth inhibition measured after 72 hrs by alamar blue dye based spectrofluorimetric analysis. To be noted: STIB900, 72 h. It counts as functional, organism-based. (Alamar Blue is a resazurin reagent that responds to reducing activity.)

In series [6] the test system is Vero. Description: Cytotoxicity against African green monkey Vero cells assessed as reduction in cell viability measured after 72 hrs by SRB assay. To be noted: Chlorocebus sabaeus. It counts as cell-based.

Consider `Clc1ccc2c(c1)N(CCCN1CCN(CCCc3ccccc3)CC1)c1ccccc1S2`, for which the EC50 in series [1] came to 0.775 µM. Also, the IC50 in series [2] was 0.75 µM.

On to `C=C1C[C@H]2OC(=O)C(=C)[C@@H]2[C@H](OC(=O)/C(C)=C/C)C[C@@]2(C)OC1=CC2=O`, for which the 50% inhibitory concentration (IC50) in series [3] came out at 0.015 µM.

With `COc1cccc(-c2cccc(COc3ccc4c(c3)[C@@H](O)CN(C)C4)c2)c1`, the selectivity ratio in series [4] came out at 8.4. The values for the concentration for half-maximal inhibition (IC50) in series [5] and in series [6] were 2.9 µM and 24.3 µM, respectively.

Take `OC1CNCc2c(OCc3cccc(Br)c3)cccc21` (stereo unspecified): the selectivity ratio in series [4] was 28.3. For the same molecule, the IC50 is 2.6 µM in series [5] and 73.5 µM in series [6].

For the molecule `CN1Cc2ccc(OCc3ccc(-c4ccc(Cl)cc4)cc3)cc2[C@@H](O)C1`, the selectivity ratio in series [4] worked out at 77.5. For the same molecule, the half-maximal inhibitory concentration (IC50) came out at 0.28 µM in series [5] and 21.7 µM in series [6].

For `CN1Cc2ccc(OCc3ccc(Oc4ccc(F)cc4)cc3)cc2[C@@H](O)C1`, the selectivity ratio in series [4] was 2.1. Moreover, the IC50 was 2.7 µM in series [5] and 5.6 µM in series [6].

`OC1CNCc2ccc(OCc3ccccc3)cc21` (stereo unspecified): in series [4], the selectivity ratio is above 2.9. For the same molecule, the IC50 was 17.4 µM in series [5] and above 50 µM in series [6].

In the case of `CN1CCc2cc(Oc3ccc(-c4ccccc4)cc3)ccc2C1`, the selectivity ratio in series [4] came to 8.3. Besides, the half-maximal inhibitory concentration (IC50) in series [5] was found to be 2.7 µM; in series [6], 22.3 µM.

Regarding `CN1CCc2cc(Oc3ccccc3)ccc2C1`, the selectivity ratio in series [4] is above 5.7. Also, the IC50 in series [5] is 19.8 µM; in series [6] it was above 100 µM.

With `CC1(C)N=C(N)N=C(N)N1OCCCOc1cc(Cl)c(Cl)cc1Cl`, the selectivity ratio in series [4] is above 40. The IC50 in series [5] is 0.25 µM; in series [6] it was above 10 µM.

As to `CN1Cc2ccc(OCCc3ccccc3)cc2[C@@H](O)C1`, the selectivity ratio in series [4] was above 2.8. Besides, the half-maximal inhibitory concentration (IC50) in series [5] was 17.9 µM; in series [6] it was above 50 µM.

Take `OC1CNCc2ccc(OCc3ccc(-c4ccccc4)cc3)cc21` (stereo unspecified): the selectivity ratio in series [4] stood at 83.2. The IC50 in series [5] was determined as 0.25 µM; in series [6], 20.8 µM.

Take `CN1Cc2c(OCc3ccc(-c4ccccc4)cc3)cccc2[C@@H](O)C1`: the selectivity ratio in series [4] is above 16. Also, the figures for the IC50 in series [5] and in series [6] were 3.1 µM and above 50 µM, respectively.

In the case of `CN1Cc2ccc(OCc3ccc(-c4ccc(-c5ccccc5)cc4)cc3)cc2[C@@H](O)C1`, the selectivity ratio in series [4] was found to be 1. Further, the IC50 in series [5] and in series [6] was 0.28 µM in each case.

`CN1Cc2ccc(OCc3ccc(-c4ccccc4)cc3)cc2[C@@H](OC(=O)c2ccccc2)C1`: the selectivity ratio in series [4] came out at 0.6. Besides, the IC50 in series [5] worked out at 16.4 µM; in series [6], 10.5 µM.

With `CN1CCc2cc(-c3ccc(-c4ccccc4)cc3)ccc2C1`, the selectivity ratio in series [4] was determined as 57.8. The 50% inhibitory concentration (IC50) in series [5] worked out at 0.27 µM; in series [6] it was 15.6 µM.

Turning to `CN1CCc2cc(OCCC3CCCCC3)ccc2C1`, the selectivity ratio in series [4] was determined as 8.6. The 50% inhibitory concentration (IC50) in series [5] was 2.9 µM; in series [6], 25 µM.

Regarding `OC1CNCc2c(OCc3ccc(-c4ccccc4)cc3)cccc21` (stereo unspecified), the selectivity ratio in series [4] stood at 8. Besides, the IC50 in series [5] was 2.7 µM; in series [6] it was 21.6 µM.

In the case of `OC1CN(Cc2ccccc2)Cc2ccc(OCc3ccccc3)cc21` (stereo unspecified), in series [4], the selectivity ratio worked out at 3.8. Besides, the 50% inhibitory concentration (IC50) in series [5] was 8.4 µM; in series [6], 31.8 µM.

On to `OC1CNCc2ccc(OCCC3CCCCC3)cc21` (stereo unspecified), for which the selectivity ratio in series [4] is above 20. In addition, the IC50 was 2.5 µM in series [5] and above 50 µM in series [6].

Consider `CN1Cc2c(OCCC3CCCCC3)cccc2[C@@H](O)C1`, for which the selectivity ratio in series [4] amounted to 4.8. Also, the IC50 in series [5] was found to be 13 µM; in series [6], 62.7 µM.

Turning to `COc1ccc(COc2ccc3c(c2)[C@@H](O)CN(C)C3)cc1`, the selectivity ratio in series [4] is above 2.9. Besides, the figures for the IC50 in series [5] and in series [6] were 17.5 µM and above 50 µM, respectively.

Consider `CN1Cc2ccc(OCc3cccc(-c4ccc(Cl)cc4)c3)cc2[C@@H](O)C1`, for which the selectivity ratio in series [4] stood at 9.4. For the same molecule, the IC50 stood at 2.9 µM in series [5] and 27.3 µM in series [6].

For the origin of these results see ChEMBL document CHEMBL5032529, “Synthesis and evaluation of tetrahydroisoquinoline derivatives against Trypanosoma brucei rhodesiense” (Eur J Med Chem, 2021).
